Like-named read-outs stand apart in the source and are kept apart here. Bounds are passed on as bounds.

Experiment [1] concerns the target T1, c-Met (cytoplasmic domain) (Homo sapiens, UniProt P08581).
T1 construct: 10 ng/mL c-Met (cytoplasmic domain, Invitrogen Corporation #PV3143); purchased Invitrogen Corporation PV3143
Nature of the experiment: c-Met Kinase Assay (same methods as for ALK, with modifications). It counts as biochemical. In a few lines:
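Steps: coat wells with PLC-γ (10 μg/mL, Tris-buffered saline); add 10 ng/mL c-Met cytoplasmic domain to initiate; incubate 15 min, 37° C; detect phosphoproduct via Eu-N1 PT66 antibody.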

Experiment [2] concerns the target T2, baculovirus-expressed ALK (Homo sapiens, UniProt Q9UM73).
T2 construct: host or cells: baculovirus expression system
Description: ALK Kinase Assay (ELISA-type, time-resolved fluorescence). It is filed as biochemical. In a few lines: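 Wells were coated with phospholipase C-γ at 10 μg/mL in Tris-buffered saline. Adding 30 ng/ml enzyme started the reaction, which ran at 37° C for 15 minutes before Eu-N1 PT66 antibody detection. Percent inhibition versus log10 concentration gave IC50 by variable-slope fit.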

The mark [3] stands for this setting: 1 μM ATP (Km level), 10 ng/mL c-Met, read-out: cMet Activity (c-Met kinase inhibition, IC50 class).
Setting [4] is: 1 μM ATP (Km level), 30 ng/ml ALK, 37° C., 15 minutes, read-out: ALK Activity (ALK kinase inhibition, IC50 class).
Where [5] appears, read: 1 μM ATP (Km level), read-out: cMet Activity (c-Met Kinase Inhibition, IC50).
[6] abbreviates: 1 μM ATP (Km level), read-out: ALK Activity (ALK Kinase Inhibition, IC50).
Setting [7] is: c-Met kinase inhibition, 1 μM ATP, read-out: cMet Activity.
Where [8] appears, read: ALK kinase inhibition, 1 μM ATP, read-out: ALK Activity.
[9] abbreviates: c-Met kinase inhibition, 1 μM ATP (Km level), read-out: cMet Activity.
Where [10] appears, read: ALK kinase inhibition, 1 μM ATP (Km level), read-out: ALK Activity.

T1 sequence (P08581 956-1390 limits assumed): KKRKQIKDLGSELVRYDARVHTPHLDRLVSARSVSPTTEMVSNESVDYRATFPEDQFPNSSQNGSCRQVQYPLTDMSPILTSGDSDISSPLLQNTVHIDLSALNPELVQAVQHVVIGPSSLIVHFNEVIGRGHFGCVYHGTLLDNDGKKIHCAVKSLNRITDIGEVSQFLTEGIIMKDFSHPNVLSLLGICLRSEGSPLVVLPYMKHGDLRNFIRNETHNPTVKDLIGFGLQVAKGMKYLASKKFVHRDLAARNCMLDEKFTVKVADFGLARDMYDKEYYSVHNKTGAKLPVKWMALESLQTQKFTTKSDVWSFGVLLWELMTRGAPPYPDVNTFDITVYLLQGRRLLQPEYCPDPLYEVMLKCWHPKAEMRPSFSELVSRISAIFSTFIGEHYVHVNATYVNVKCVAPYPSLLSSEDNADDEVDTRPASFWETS
T2 sequence (Q9UM73 19-1620): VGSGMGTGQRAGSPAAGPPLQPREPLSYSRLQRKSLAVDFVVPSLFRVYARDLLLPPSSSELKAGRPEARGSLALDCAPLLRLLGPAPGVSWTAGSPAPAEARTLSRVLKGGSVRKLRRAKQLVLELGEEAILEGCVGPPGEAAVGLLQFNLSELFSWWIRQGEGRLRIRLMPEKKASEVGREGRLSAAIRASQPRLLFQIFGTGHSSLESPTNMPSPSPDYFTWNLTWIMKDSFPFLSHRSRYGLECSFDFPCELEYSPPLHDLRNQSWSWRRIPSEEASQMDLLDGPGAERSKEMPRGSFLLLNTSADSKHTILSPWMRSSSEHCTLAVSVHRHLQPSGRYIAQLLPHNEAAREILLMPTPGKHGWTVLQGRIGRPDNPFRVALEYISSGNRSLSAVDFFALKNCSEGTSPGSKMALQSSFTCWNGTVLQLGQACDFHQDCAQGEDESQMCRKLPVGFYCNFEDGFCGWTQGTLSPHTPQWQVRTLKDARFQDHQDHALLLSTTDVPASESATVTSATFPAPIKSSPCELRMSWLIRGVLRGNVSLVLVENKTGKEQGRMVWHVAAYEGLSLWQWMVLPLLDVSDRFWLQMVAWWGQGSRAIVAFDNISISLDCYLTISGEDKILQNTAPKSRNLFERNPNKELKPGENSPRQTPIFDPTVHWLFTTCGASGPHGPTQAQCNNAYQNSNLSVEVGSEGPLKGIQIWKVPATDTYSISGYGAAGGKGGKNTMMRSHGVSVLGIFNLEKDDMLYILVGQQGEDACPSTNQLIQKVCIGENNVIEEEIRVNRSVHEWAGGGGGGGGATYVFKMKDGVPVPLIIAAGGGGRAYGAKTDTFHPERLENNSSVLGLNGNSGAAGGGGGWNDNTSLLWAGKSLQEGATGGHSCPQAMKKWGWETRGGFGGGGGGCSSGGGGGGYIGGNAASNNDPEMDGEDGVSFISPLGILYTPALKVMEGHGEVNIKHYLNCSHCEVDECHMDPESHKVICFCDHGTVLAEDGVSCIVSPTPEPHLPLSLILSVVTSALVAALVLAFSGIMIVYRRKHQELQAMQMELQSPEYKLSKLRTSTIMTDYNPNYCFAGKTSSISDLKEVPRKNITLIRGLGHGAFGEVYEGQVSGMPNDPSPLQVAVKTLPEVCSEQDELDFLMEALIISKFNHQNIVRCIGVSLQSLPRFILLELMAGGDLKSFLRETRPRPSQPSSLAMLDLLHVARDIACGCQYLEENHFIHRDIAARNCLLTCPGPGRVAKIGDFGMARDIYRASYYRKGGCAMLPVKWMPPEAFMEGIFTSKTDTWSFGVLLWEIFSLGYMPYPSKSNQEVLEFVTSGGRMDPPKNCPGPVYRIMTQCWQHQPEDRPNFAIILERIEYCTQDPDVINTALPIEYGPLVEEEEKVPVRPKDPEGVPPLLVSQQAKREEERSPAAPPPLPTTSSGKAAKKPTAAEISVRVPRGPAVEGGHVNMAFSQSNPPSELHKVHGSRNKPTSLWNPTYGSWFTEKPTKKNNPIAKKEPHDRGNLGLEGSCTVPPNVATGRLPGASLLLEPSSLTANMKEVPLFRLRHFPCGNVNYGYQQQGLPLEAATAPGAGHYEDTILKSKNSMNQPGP

Take `COCCN1CCc2ccc(Nc3ncc(Cl)c(Nc4c(OC)cccc4C(=O)NCCC#N)n3)cc2CC1` [Example 1060, 2-{5-Chloro-2-[3-(2-methoxy-ethyl)-2,3,4,5-tetrahydro-1H-benzo[d]azepin-7-ylamino]-pyrimidin-4-ylamino}-N-(2-cyano-ethyl)-3-methoxy-benzamide]: the IC50 in experiment [1] (setting [3]) and in experiment [2] (setting [4]) was 1000 to 10000 nM in each case.
With `COCCN1CCc2ccc(Nc3ncc(Cl)c(N[C@@H]4CCC[C@@H](NS(C)(=O)=O)C4)n3)cc2CC1` (relative stereo) [Example 1379, rel-N-((1R,3R)-3-{5-Chloro-2-[3-(2-methoxy-ethyl)-2,3,4,5-tetrahydro-1H-benzo[d]azepin-7-ylamino]-pyrimidin-4-ylamino}-cyclohexyl)-methanesulfonamide], the IC50 in experiment [1] (setting [3]) and in experiment [2] (setting [4]) was 1000 to 10000 nM each time.
Consider `COCCNC1CCCc2c(ccc(Nc3ncc(Cl)c(N[C@@H]4CCCC[C@H]4NS(C)(=O)=O)n3)c2OC)C1` (stereo partly drawn) [Example 958, N-((1R,2R)-2-{5-Chloro-2-[1-methoxy-6-(2-methoxy-ethylamino)-6,7,8,9-tetrahydro-5H-benzocyclohepten-2-ylamino]-pyrimidin-4-ylamino}-cyclohexyl)-methanesulfonamide], for which the IC50 was greater than 10000 nM in experiment [1] (setting [5]) and less than 100 nM in experiment [2] (setting [6]).
For `CNC(=O)c1ccccc1Nc1nc(Nc2ccc3c(c2)CNC(=O)CCN3C(=O)C(F)(F)F)ncc1Cl` [Example 1301, 2-{5-Chloro-2-[4-oxo-1-(2,2,2-trifluoro-acetyl)-1,2,3,4,5,6-hexahydro-benzo[b][1,5]diazocin-8-ylamino]-pyrimidin-4-ylamino}-N-methyl-benzamide], the IC50 in experiment [1] (setting [3]) and in experiment [2] (setting [4]) was less than 100 nM throughout.
As to `COCCN1CCc2cc(Nc3ncc(Cl)c(Nc4ccc(C(N)=O)cc4OC)n3)c(OC)cc2CC1` [Example 1156, 4-{5-Chloro-2-[8-methoxy-3-(2-methoxy-ethyl)-2,3,4,5-tetrahydro-1H-benzo[d]azepin-7-ylamino]-pyrimidin-4-ylamino}-3-methoxy-benzamide], the IC50 was greater than 10000 nM in experiment [1] (setting [3]) and less than 100 nM in experiment [2] (setting [4]).
For the molecule `COCCNC1CCc2cc(Nc3ncc(Cl)c(N[C@@H]4CCCC[C@H]4NS(C)(=O)=O)n3)c(OC)cc2CC1` (stereo partly drawn) [Example 895, N-((1R,2R)-2-{5-Chloro-2-[3-methoxy-7-(2-methoxy-ethylamino)-6,7,8,9-tetrahydro-5H-benzocyclohepten-2-ylamino]-pyrimidin-4-ylamino}-cyclohexyl)-methanesulfonamide], the IC50 in experiment [1] (setting [5]) is greater than 10000 nM; in experiment [2] (setting [6]), less than 100 nM.
`CCN1CCc2cc(Nc3ncc(Cl)c(Nc4ccc(N5CCOCC5)cc4OC)n3)c(OC)cc2CC1` [Example 1129, 5-Chloro-N*2*-(3-ethyl-8-methoxy-2,3,4,5-tetrahydro-1H-benzo[d]azepin-7-yl)-N*4*-(2-methoxy-4-morpholin-4-yl-phenyl)-pyrimidine-2,4-diamine]: the IC50 in experiment [1] (setting [3]) was greater than 10000 nM; in experiment [2] (setting [4]), less than 100 nM.
On to `CCN1CCCOc2ccc(Nc3ncc(Cl)c(Nc4ccsc4C(=O)NC)n3)cc21` [Example 1698, 3-[5-Chloro-2-(9-ethyl-6,7,8,9-tetrahydro-5-oxa-9-aza-benzocyclohepten-2-ylamino)-pyrimidin-4-ylamino]-thiophene-2-carboxylic acid methyl amide], for which the IC50 in experiment [1] (setting [7]) and in experiment [2] (setting [8]) was 100 to 1000 nM throughout.
As for `C#CCNC(=O)c1cc(F)cc(F)c1Nc1nc(Nc2ccc3c(c2)N(C(=O)N2CCCC2)CCCC3(C)C)ncc1Cl` [Example 1622, 2-{5-Chloro-2-[5,5-dimethyl-1-(pyrrolidine-1-carbonyl)-2,3,4,5-tetrahydro-1H-benzo[b]azepin-8-ylamino]-pyrimidin-4-ylamino}-3,5-difluoro-N-prop-2-ynyl-benzamide], the results for the IC50 in experiment [1] (setting [7]) and in experiment [2] (setting [8]) were 100 to 1000 nM and 1000 to 10000 nM, respectively.
Taken in the same sequence, the figures for `CC1(C)CCC(=O)Nc2cc(Nc3ncc(Cl)c(Nc4ccccc4OCC#N)n3)ccc21` [Example 1578, {2-[5-Chloro-2-(5,5-dimethyl-2-oxo-2,3,4,5-tetrahydro-1H-benzo[b]azepin-8-ylamino)-pyrimidin-4-ylamino]-phenoxy}-acetonitrile] were 100 to 1000 nM and less than 100 nM.
The corresponding values for `Cc1cnc(-c2cccc(F)c2Nc2nc(Nc3ccc4c(c3)CCOC(=O)N4C)ncc2Cl)o1` [Example 1789, 2-{5-Chloro-4-[2-fluoro-6-(5-methyl-oxazol-2-yl)-phenylamino]-pyrimidin-2-ylamino}-5-methyl-8,9-dihydro-5H-7-oxa-5-aza-benzocyclohepten-6-one] are 100 to 1000 nM and 100 to 1000 nM.
For `COc1cc2c(cc1Nc1ncc(Cl)c(N[C@@H]3CCCC[C@H]3NS(C)(=O)=O)n1)CCN(CCO)CC2` [Example 1531, N-((1R,2R)-2-{5-Chloro-2-[3-(2-hydroxy-ethyl)-8-methoxy-2,3,4,5-tetrahydro-1H-3-benzazepin-7-ylamino]-pyrimidin-4-ylamino}-cyclohexyl)-methanesulfonamide], the IC50 in experiment [1] (setting [7]) is greater than 10000 nM; in experiment [2] (setting [8]), less than 100 nM.
On to `COCC(COC)N1CCc2cc(Nc3ncc(Cl)c(Nc4ccccc4S(=O)(=O)N4CCCC4)n3)c(OC)cc2CC1` [Example 844, 5-Chloro-N*2*-[8-methoxy-3-(2-methoxy-1-methoxymethyl-ethyl)-2,3,4,5-tetrahydro-1H-benzo[d]azepin-7-yl]-N*4*-[2-(pyrrolidine-1-sulfonyl)-phenyl]-pyrimidine-2,4-diamine], for which the IC50 in experiment [1] (setting [5]) is 1000 to 10000 nM; in experiment [2] (setting [6]) it was less than 100 nM.
On to `COCCN1CCc2ccc(Nc3ncc(Cl)c(Nc4ccccc4-n4cccn4)n3)cc2CC1` [Example 316, 5-Chloro-N*2*-[3-(2-methoxy-ethyl)-2,3,4,5-tetrahydro-1H-benzo[d]azepin-7-yl]-N*4*-(2-pyrazol-1-yl-phenyl)-pyrimidine-2,4-diamine], for which the values for the IC50 in experiment [1] (setting [9]) and in experiment [2] (setting [10]) were 100 to 1000 nM and less than 100 nM, respectively.
As for `NC(=O)C1C2C=CC(C2)C1Nc1nc(Nc2ccc3c(c2)CNC(=O)CC3)ncc1Cl` (stereo not drawn) [Example 1797, 3-exo-[5-Chloro-2-(3-oxo-2,3,4,5-tetrahydro-1H-benzo[c]azepin-8-ylamino)-pyrimidin-4-yl]aminobicyclo[2.2.1]hept-5-ene-2-exo-carboxamide], the IC50 is 100 to 1000 nM in experiment [1] (setting [7]) and less than 100 nM in experiment [2] (setting [8]).
Take `COc1c(Nc2ncc(Cl)c(Nc3ccccc3S(=O)(=O)C(C)C)n2)ccc2c1CCC(N1CCOCC1)CC2` (centres unmarked) [Example 883, 5-Chloro-N*2*-(1-methoxy-7-morpholin-4-yl-6,7,8,9-tetrahydro-5H-benzocyclohepten-2-yl)-N*4*-[2-(propane-2-sulfonyl)-phenyl]-pyrimidine-2,4-diamine]: the IC50 in experiment [1] (setting [5]) was 1000 to 10000 nM; in experiment [2] (setting [6]), less than 100 nM.
Take `COc1cc(N2CCOCC2)ccc1Nc1nc(Nc2ccc3c(c2OC)CCCC(=O)N3)ncc1Cl` [Example 140, 7-[5-Chloro-4-(2-methoxy-4-morpholin-4-yl-phenylamino)-pyrimidin-2-ylamino]-6-methoxy-1,3,4,5-tetrahydro-benzo[b]azepin-2-one]: the IC50 is greater than 10000 nM in experiment [1] (setting [9]) and less than 100 nM in experiment [2] (setting [10]).
On to `CNC(=O)c1sccc1Nc1nc(Nc2ccc3c(c2)CCOC(=O)N3C)ncc1Cl` [Example 1747, 3-[5-Chloro-2-(5-methyl-6-oxo-5,6,8,9-tetrahydro-7-oxa-5-aza-benzocyclohepten-2-ylamino)-pyrimidin-4-ylamino]-thiophene-2-carboxylic acid methylamide], for which the IC50 was less than 100 nM in experiment [1] (setting [7]) and 100 to 1000 nM in experiment [2] (setting [8]).
In the case of “N-(2-{5-Chloro-2-[3-(2-methoxy-ethyl)-2,3,4,5-tetrahydro-1H-benzo[d]azepin-7-ylamino]-pyrimidin-4-ylamino}-phenyl)-methanesulfonamide [Example 37]”, the IC50 is 1000 to 10000 nM in experiment [1] (setting [9]) and less than 100 nM in experiment [2] (setting [10]).
As for `CCN1C(=O)CCC(C)(C)c2ccc(Nc3ncc(Cl)c(Nc4ccccc4S(=O)(=O)N(C)C)n3)cc21` [Example 1595, 2-[5-Chloro-2-(1-ethyl-5,5-dimethyl-2-oxo-2,3,4,5-tetrahydro-1H-benzo[b]azepin-8-ylamino)-pyrimidin-4-ylamino]-N,N-dimethyl-benzenesulfonamide], the IC50 in experiment [1] (setting [7]) and in experiment [2] (setting [8]) was less than 100 nM in each case.
Regarding “5-Chloro-N*2*-[7-(2,2-difluoro-ethylamino)-1-methoxy-6,7,8,9-tetrahydro-5H-benzocyclohepten-2-yl]-N*4*-methyl-N*4*-[2-(propane-2-sulfonyl)-phenyl]-pyrimidine-2,4-diamine [Example 678]”, the IC50 in experiment [1] (setting [5]) was greater than 10000 nM; in experiment [2] (setting [6]), less than 100 nM.
Consider `CC1(C)CCC(=O)Nc2ccc(Nc3ncc(Cl)c(Nc4ccccc4-c4ncccn4)n3)cc21` [Example 976, 7-[5-Chloro-4-(2-pyrimidin-2-yl-phenylamino)-pyrimidin-2-ylamino]-5,5-dimethyl-1,3,4,5-tetrahydro-benzo[b]azepin-2-one], for which the IC50 in experiment [1] (setting [5]) was greater than 10000 nM; in experiment [2] (setting [6]) it was less than 100 nM.

Values taken from patent US8148391B2 (Cephalon, Inc., priority 2006, dated 2012).
